The test system of the first data set is A549 Cell line (Lung Cancer Cell line). The data set can be described thus: Cell proliferation assay (MTT), in-vitro anticancer activity against A549 cell line. The class given is cell-based. The following applies: Homo sapiens, A549, 0.01 μM, 72 h. Here is the method: (§1) Each cell line was plated in 96-well microtiter plates (10,000 cells per well), and serial dilutions of indicated compounds were added. At the end of the incubation period (72 h at 37° C.), cell viability was determined by a tetrazolium dye, MTT (3-(4,5-dimethylthiazol-2-yl)-2,5-diphenyl tetrazolium bromide) (Promega, USA). The formazan crystals were dissolved in DMSO, and the absorbance at 600 nm was recorded using an ELISA plate reader. IC50 values were calculated using nonlinear regression and defined as the concentration needed for a 50% reduction in absorbance of treated versus untreated control cells.
In-Vitro Anticancer Activity Against A549 Cell Line (Lung Cancer Cell Line) (Adenocarcinomic Human Alveolar Basal Epithelial Cells)
Broadly, the viability is a read-out of living cells in per cent, often relative to untreated cells. A higher viability goes with less harm to the cells. For `COc1ccc2oc(-c3sc(Nc4c(C)cccc4C)nc3N)cc(=O)c2c1` [Compound S1-M12, 2-(2-(2,6-dimethylphenylamino)-4-aminothiazol-5-yl)-6-methoxy-4H-chromen-4-one], the viability at 0.01 µM came out at 92.1%.

`COc1ccc2oc(-c3sc(Nc4c(Cl)cccc4Cl)nc3N)cc(=O)c2c1` [Compound S1-M13, 2-(2-(2,6-dichlorophenylamino)-4-aminothiazol-5-yl)-6-methoxy-4H-chromen-4-one] yielded a viability at 0.01 µM of 95.4%.

`COc1ccc(Nc2nc(N)c(-c3cc(=O)c4ccc(OC)cc4o3)s2)cc1` [Compound S1-M14, 2-(2-(4-methoxyphenylamino)-4-aminothiazol-5-yl)-7-methoxy-4H-chromen-4-one] returned a viability at 0.01 µM of 98%.

`COc1ccc2c(=O)cc(-c3sc(Nc4ccccc4OC)nc3N)oc2c1` [Compound S1-M15, 2-(2-(2-methoxyphenylamino)-4-aminothiazol-5-yl)-7-methoxy-4H-chromen-4-one] showed a viability at 0.01 µM of 96.1%.

The same data set, now with this note: Homo sapiens, A549, 0.1 μM, 72 h.
Compound `COc1ccc2oc(-c3sc(Nc4c(C)cccc4C)nc3N)cc(=O)c2c1` [Compound S1-M12, 2-(2-(2,6-dimethylphenylamino)-4-aminothiazol-5-yl)-6-methoxy-4H-chromen-4-one] registered a viability at 0.1 µM of 95.4%.

Take `COc1ccc2oc(-c3sc(Nc4c(Cl)cccc4Cl)nc3N)cc(=O)c2c1` [Compound S1-M13, 2-(2-(2,6-dichlorophenylamino)-4-aminothiazol-5-yl)-6-methoxy-4H-chromen-4-one]: the viability at 0.1 µM was found to be 90.9%.

The compound `COc1ccc(Nc2nc(N)c(-c3cc(=O)c4ccc(OC)cc4o3)s2)cc1` [Compound S1-M14, 2-(2-(4-methoxyphenylamino)-4-aminothiazol-5-yl)-7-methoxy-4H-chromen-4-one] registered a viability at 0.1 µM of 89.1%.

Regarding `COc1ccc2c(=O)cc(-c3sc(Nc4ccccc4OC)nc3N)oc2c1` [Compound S1-M15, 2-(2-(2-methoxyphenylamino)-4-aminothiazol-5-yl)-7-methoxy-4H-chromen-4-one], the viability at 0.1 µM came to 92.7%.

The data set is the same for the next values; noted with them: Homo sapiens, A549, 2.5 μM, 72 h.
In the case of `COc1ccc2oc(-c3sc(Nc4c(C)cccc4C)nc3N)cc(=O)c2c1` [Compound S1-M12, 2-(2-(2,6-dimethylphenylamino)-4-aminothiazol-5-yl)-6-methoxy-4H-chromen-4-one], the viability at 2.5 µM amounted to 86.9%.

On to `COc1ccc2oc(-c3sc(Nc4c(Cl)cccc4Cl)nc3N)cc(=O)c2c1` [Compound S1-M13, 2-(2-(2,6-dichlorophenylamino)-4-aminothiazol-5-yl)-6-methoxy-4H-chromen-4-one], for which the viability at 2.5 µM turned out to be 82.6%.

In turn, `COc1ccc(Nc2nc(N)c(-c3cc(=O)c4ccc(OC)cc4o3)s2)cc1` [Compound S1-M14, 2-(2-(4-methoxyphenylamino)-4-aminothiazol-5-yl)-7-methoxy-4H-chromen-4-one] showed a viability at 2.5 µM of 81.1%.

With `COc1ccc2c(=O)cc(-c3sc(Nc4ccccc4OC)nc3N)oc2c1` [Compound S1-M15, 2-(2-(2-methoxyphenylamino)-4-aminothiazol-5-yl)-7-methoxy-4H-chromen-4-one], the viability at 2.5 µM was found to be 85.3%.

The same data set, now with this note: Homo sapiens, A549, 5 μM, 72 h.
For the compound `COc1ccc2oc(-c3sc(Nc4c(C)cccc4C)nc3N)cc(=O)c2c1` [Compound S1-M12, 2-(2-(2,6-dimethylphenylamino)-4-aminothiazol-5-yl)-6-methoxy-4H-chromen-4-one], the viability at 5 µM stood at 78.9%.

As to `COc1ccc2oc(-c3sc(Nc4c(Cl)cccc4Cl)nc3N)cc(=O)c2c1` [Compound S1-M13, 2-(2-(2,6-dichlorophenylamino)-4-aminothiazol-5-yl)-6-methoxy-4H-chromen-4-one], the viability at 5 µM is 72.6%.

In turn, `COc1ccc(Nc2nc(N)c(-c3cc(=O)c4ccc(OC)cc4o3)s2)cc1` [Compound S1-M14, 2-(2-(4-methoxyphenylamino)-4-aminothiazol-5-yl)-7-methoxy-4H-chromen-4-one] came in with a viability at 5 µM of 71.1%.

The compound `COc1ccc2c(=O)cc(-c3sc(Nc4ccccc4OC)nc3N)oc2c1` [Compound S1-M15, 2-(2-(2-methoxyphenylamino)-4-aminothiazol-5-yl)-7-methoxy-4H-chromen-4-one] came in with a viability at 5 µM of 75.3%.

The data set is the same for the next values; noted with them: Homo sapiens, A549, 10 μM, 72 h.
In turn, `COc1ccc2oc(-c3sc(Nc4c(C)cccc4C)nc3N)cc(=O)c2c1` [Compound S1-M12, 2-(2-(2,6-dimethylphenylamino)-4-aminothiazol-5-yl)-6-methoxy-4H-chromen-4-one] showed a viability at 10 µM of 66.9%.

`COc1ccc2oc(-c3sc(Nc4c(Cl)cccc4Cl)nc3N)cc(=O)c2c1` [Compound S1-M13, 2-(2-(2,6-dichlorophenylamino)-4-aminothiazol-5-yl)-6-methoxy-4H-chromen-4-one] had a viability at 10 µM of 62.6%.

With `COc1ccc(Nc2nc(N)c(-c3cc(=O)c4ccc(OC)cc4o3)s2)cc1` [Compound S1-M14, 2-(2-(4-methoxyphenylamino)-4-aminothiazol-5-yl)-7-methoxy-4H-chromen-4-one], the viability at 10 µM amounted to 63.1%.

In turn, `COc1ccc2c(=O)cc(-c3sc(Nc4ccccc4OC)nc3N)oc2c1` [Compound S1-M15, 2-(2-(2-methoxyphenylamino)-4-aminothiazol-5-yl)-7-methoxy-4H-chromen-4-one] returned a viability at 10 µM of 68.3%.

Another data set has as its system U87MG Cell line (glioblastoma cell line). As to the kind of experiment: Cell proliferation assay (MTT), in-vitro anticancer activity against U87MG cell line. The class given is cell-based. To be noted: Homo sapiens, U-87 MG, 0.01 μM, 72 h. Here is the method:
as §1
In-Vitro Anticancer Activity Against U87MG Cell Line (Glioblastoma Cell Line)
Compound `COc1ccc2oc(-c3sc(Nc4c(C)cccc4C)nc3N)cc(=O)c2c1` [Compound S1-M12, 2-(2-(2,6-dimethylphenylamino)-4-aminothiazol-5-yl)-6-methoxy-4H-chromen-4-one] came in with a viability at 0.01 µM of 85.1%.

With `COc1ccc2oc(-c3sc(Nc4c(Cl)cccc4Cl)nc3N)cc(=O)c2c1` [Compound S1-M13, 2-(2-(2,6-dichlorophenylamino)-4-aminothiazol-5-yl)-6-methoxy-4H-chromen-4-one], the viability at 0.01 µM is 90.4%.

As to `COc1ccc(Nc2nc(N)c(-c3cc(=O)c4ccc(OC)cc4o3)s2)cc1` [Compound S1-M14, 2-(2-(4-methoxyphenylamino)-4-aminothiazol-5-yl)-7-methoxy-4H-chromen-4-one], the viability at 0.01 µM came to 91%.

Compound `COc1ccc2c(=O)cc(-c3sc(Nc4ccccc4OC)nc3N)oc2c1` [Compound S1-M15, 2-(2-(2-methoxyphenylamino)-4-aminothiazol-5-yl)-7-methoxy-4H-chromen-4-one] registered a viability at 0.01 µM of 89.1%.

Still in this data set, the particulars now being: Homo sapiens, U-87 MG, 0.1 μM, 72 h.
Compound `COc1ccc2oc(-c3sc(Nc4c(C)cccc4C)nc3N)cc(=O)c2c1` [Compound S1-M12, 2-(2-(2,6-dimethylphenylamino)-4-aminothiazol-5-yl)-6-methoxy-4H-chromen-4-one] yielded a viability at 0.1 µM of 73.4%.

As to `COc1ccc2oc(-c3sc(Nc4c(Cl)cccc4Cl)nc3N)cc(=O)c2c1` [Compound S1-M13, 2-(2-(2,6-dichlorophenylamino)-4-aminothiazol-5-yl)-6-methoxy-4H-chromen-4-one], the viability at 0.1 µM stood at 81.9%.

Turning to `COc1ccc(Nc2nc(N)c(-c3cc(=O)c4ccc(OC)cc4o3)s2)cc1` [Compound S1-M14, 2-(2-(4-methoxyphenylamino)-4-aminothiazol-5-yl)-7-methoxy-4H-chromen-4-one], the viability at 0.1 µM was found to be 80.1%.

Consider `COc1ccc2c(=O)cc(-c3sc(Nc4ccccc4OC)nc3N)oc2c1` [Compound S1-M15, 2-(2-(2-methoxyphenylamino)-4-aminothiazol-5-yl)-7-methoxy-4H-chromen-4-one], for which the viability at 0.1 µM stood at 77.9%.

The data set is the same for the next values; noted with them: Homo sapiens, U-87 MG, 2.5 μM, 72 h.
Compound `COc1ccc2oc(-c3sc(Nc4c(C)cccc4C)nc3N)cc(=O)c2c1` [Compound S1-M12, 2-(2-(2,6-dimethylphenylamino)-4-aminothiazol-5-yl)-6-methoxy-4H-chromen-4-one] registered a viability at 2.5 µM of 65.9%.

Compound `COc1ccc2oc(-c3sc(Nc4c(Cl)cccc4Cl)nc3N)cc(=O)c2c1` [Compound S1-M13, 2-(2-(2,6-dichlorophenylamino)-4-aminothiazol-5-yl)-6-methoxy-4H-chromen-4-one] registered a viability at 2.5 µM of 72.4%.

On to `COc1ccc(Nc2nc(N)c(-c3cc(=O)c4ccc(OC)cc4o3)s2)cc1` [Compound S1-M14, 2-(2-(4-methoxyphenylamino)-4-aminothiazol-5-yl)-7-methoxy-4H-chromen-4-one], for which the viability at 2.5 µM was 70.6%.

`COc1ccc2c(=O)cc(-c3sc(Nc4ccccc4OC)nc3N)oc2c1` [Compound S1-M15, 2-(2-(2-methoxyphenylamino)-4-aminothiazol-5-yl)-7-methoxy-4H-chromen-4-one] had a viability at 2.5 µM of 68.7%.

Still in this data set, the particulars now being: Homo sapiens, U-87 MG, 5 μM, 72 h.
In the case of `COc1ccc2oc(-c3sc(Nc4c(C)cccc4C)nc3N)cc(=O)c2c1` [Compound S1-M12, 2-(2-(2,6-dimethylphenylamino)-4-aminothiazol-5-yl)-6-methoxy-4H-chromen-4-one], the viability at 5 µM turned out to be 56.9%.

The compound `COc1ccc2oc(-c3sc(Nc4c(Cl)cccc4Cl)nc3N)cc(=O)c2c1` [Compound S1-M13, 2-(2-(2,6-dichlorophenylamino)-4-aminothiazol-5-yl)-6-methoxy-4H-chromen-4-one] gave a viability at 5 µM of 64.6%.

Compound `COc1ccc(Nc2nc(N)c(-c3cc(=O)c4ccc(OC)cc4o3)s2)cc1` [Compound S1-M14, 2-(2-(4-methoxyphenylamino)-4-aminothiazol-5-yl)-7-methoxy-4H-chromen-4-one] gave a viability at 5 µM of 61.3%.

Compound `COc1ccc2c(=O)cc(-c3sc(Nc4ccccc4OC)nc3N)oc2c1` [Compound S1-M15, 2-(2-(2-methoxyphenylamino)-4-aminothiazol-5-yl)-7-methoxy-4H-chromen-4-one] yielded a viability at 5 µM of 60.7%.

Still in this data set, the particulars now being: Homo sapiens, U-87 MG, 10 μM, 72 h.
The compound `COc1ccc2oc(-c3sc(Nc4c(C)cccc4C)nc3N)cc(=O)c2c1` [Compound S1-M12, 2-(2-(2,6-dimethylphenylamino)-4-aminothiazol-5-yl)-6-methoxy-4H-chromen-4-one] gave a viability at 10 µM of 45.8%.

`COc1ccc2oc(-c3sc(Nc4c(Cl)cccc4Cl)nc3N)cc(=O)c2c1` [Compound S1-M13, 2-(2-(2,6-dichlorophenylamino)-4-aminothiazol-5-yl)-6-methoxy-4H-chromen-4-one] yielded a viability at 10 µM of 55.9%.

Regarding `COc1ccc(Nc2nc(N)c(-c3cc(=O)c4ccc(OC)cc4o3)s2)cc1` [Compound S1-M14, 2-(2-(4-methoxyphenylamino)-4-aminothiazol-5-yl)-7-methoxy-4H-chromen-4-one], the viability at 10 µM came to 51.1%.

The compound `COc1ccc2c(=O)cc(-c3sc(Nc4ccccc4OC)nc3N)oc2c1` [Compound S1-M15, 2-(2-(2-methoxyphenylamino)-4-aminothiazol-5-yl)-7-methoxy-4H-chromen-4-one] displayed a viability at 10 µM of 50.3%.

Tested on in another data set: not listed separately
As to the kind of experiment: Log P (Table 4). To be noted: method not stated. It counts as physicochemical.
The logP is a log measure of how a compound divides between an organic and an aqueous phase. Lower therefore signals a more hydrophilic compound. `COc1ccc2oc(-c3sc(Nc4c(C)cccc4C)nc3N)cc(=O)c2c1` [Compound S1-M12, 2-(2-(2,6-dimethylphenylamino)-4-aminothiazol-5-yl)-6-methoxy-4H-chromen-4-one] returned a logP of 2.7.

In turn, `COc1ccc2oc(-c3sc(Nc4c(Cl)cccc4Cl)nc3N)cc(=O)c2c1` [Compound S1-M13, 2-(2-(2,6-dichlorophenylamino)-4-aminothiazol-5-yl)-6-methoxy-4H-chromen-4-one] registered a logP of 2.18.

The compound `COc1ccc(Nc2nc(N)c(-c3cc(=O)c4ccc(OC)cc4o3)s2)cc1` [Compound S1-M14, 2-(2-(4-methoxyphenylamino)-4-aminothiazol-5-yl)-7-methoxy-4H-chromen-4-one] had a logP of 2.6.

As to `COc1ccc2c(=O)cc(-c3sc(Nc4ccccc4OC)nc3N)oc2c1` [Compound S1-M15, 2-(2-(2-methoxyphenylamino)-4-aminothiazol-5-yl)-7-methoxy-4H-chromen-4-one], the logP worked out at 2.5.

Tested on in another data set: not given
Test: not given
Details: not given
In general, melting point refers to the temperature, or range, at which the solid turns liquid. `COc1ccc2oc(-c3sc(Nc4c(C)cccc4C)nc3N)cc(=O)c2c1` [Compound S1-M12, 2-(2-(2,6-dimethylphenylamino)-4-aminothiazol-5-yl)-6-methoxy-4H-chromen-4-one] yielded a melting point of 228 to 230 °C.

Take `COc1ccc2oc(-c3sc(Nc4c(Cl)cccc4Cl)nc3N)cc(=O)c2c1` [Compound S1-M13, 2-(2-(2,6-dichlorophenylamino)-4-aminothiazol-5-yl)-6-methoxy-4H-chromen-4-one]: the melting point lay within 260 to 262 °C.

In turn, `COc1ccc(Nc2nc(N)c(-c3cc(=O)c4ccc(OC)cc4o3)s2)cc1` [Compound S1-M14, 2-(2-(4-methoxyphenylamino)-4-aminothiazol-5-yl)-7-methoxy-4H-chromen-4-one] returned a melting point of 220 to 222 °C.

In turn, `COc1ccc2c(=O)cc(-c3sc(Nc4ccccc4OC)nc3N)oc2c1` [Compound S1-M15, 2-(2-(2-methoxyphenylamino)-4-aminothiazol-5-yl)-7-methoxy-4H-chromen-4-one] gave a melting point of 210 to 212 °C.

These data come from patent US10221165B2, “Flavone based EGFR inhibitors and process for preparation thereof” (Council of Scientific and Industrial Research, priority 2015, dated 2019).
